Target: T1, WT BTK protein (Homo sapiens, UniProt Q06187)
T1 construct: measured for intracellular BTK protein levels by Western blotting; endogenous in cells; host or cells: TMD-8 or RAMOS cells
Test: BTK protein degradation assay (Western blotting), WT BTK
Format: cell-based
Conditions: concentration range accounting for 50% degradation of WT BTK protein, TMD-8 or RAMOS cells, 24 hours
Outline: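 TMD-8 cells (1×10^6 cells/mL) treated 24 h with compound serial dilutions, then lysed in RIPA. Equal protein loads analysed by Western blot for BTK with GAPDH/β-actin as loading controls; activity binned by concentration giving 50% WT BTK degradation.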

T1 sequence (Q06187 whole entry): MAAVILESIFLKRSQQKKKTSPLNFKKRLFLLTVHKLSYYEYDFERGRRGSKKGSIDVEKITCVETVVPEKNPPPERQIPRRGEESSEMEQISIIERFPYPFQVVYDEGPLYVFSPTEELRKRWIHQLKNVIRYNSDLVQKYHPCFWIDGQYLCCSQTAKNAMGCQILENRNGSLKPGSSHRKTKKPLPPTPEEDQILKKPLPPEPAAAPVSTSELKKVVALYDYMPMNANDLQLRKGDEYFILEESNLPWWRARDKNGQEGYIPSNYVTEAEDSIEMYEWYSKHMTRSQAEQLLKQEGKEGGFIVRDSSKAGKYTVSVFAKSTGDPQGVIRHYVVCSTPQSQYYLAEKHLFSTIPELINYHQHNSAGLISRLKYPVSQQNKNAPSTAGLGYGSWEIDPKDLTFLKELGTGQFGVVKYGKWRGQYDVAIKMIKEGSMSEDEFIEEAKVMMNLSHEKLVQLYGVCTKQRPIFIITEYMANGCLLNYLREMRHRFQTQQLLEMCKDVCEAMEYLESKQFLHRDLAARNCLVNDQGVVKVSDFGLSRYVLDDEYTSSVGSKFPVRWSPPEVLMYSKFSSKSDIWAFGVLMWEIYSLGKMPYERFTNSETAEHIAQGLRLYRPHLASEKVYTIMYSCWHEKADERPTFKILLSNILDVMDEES

For `Cc1cccc(C)c1Nc1nn(C)c2nc(Nc3ccc4c(c3)CN(C(=O)CN3CCN(c5ccc6c(c5)C(=O)N(C5CCC(=O)NC5=O)C6=O)CC3)CC4)ncc12` (centres unmarked) [Compound 93, 5-(4-(2-(7-((3-((2,6-dimethylphenyl)amino)-1-methyl-1H-pyrazolo [3,4-d]pyrimidin-6-yl)amino)-3,4-dihydroisoquinolin-2 (1H)-yl)-2-oxoethyl)piperazin-1-yl)-2-(2,6-dioxopiperidin-3-yl)isoindoline-1,3-dione], the DC50 was 10 to 1000 nM.

For `Cc1cccc(C)c1Nc1nn(C)c2nc(Nc3ccc4c(c3)CN(CC(=O)NCc3ccc5c(c3)CN(C3CCC(=O)NC3=O)C5=O)CC4)ncc12` (centres unmarked) [Compound 94, 2-(7-((3-((2,6-dimethylphenyl)amino)-1-methyl-1H-pyrazolo[3,4-d]pyrimidin-6-yl)amino)-3,4-dihydroisoquinolin-2 (1H)-yl)-N-((2-(2,6-dioxopiperidin-3-yl)-1-oxoisoindolin-5-yl)methyl)acetamide], the DC50 was 10 to 1000 nM.

For `Cc1cccc(C)c1Nc1nn(C)c2nc(Nc3ccc4c(c3)CN(CC(=O)N3CCN(c5ccc6c(c5)C(=O)N(C5CCC(=O)NC5=O)C6=O)CC3)CC4)ncc12` (centres unmarked) [Compound 95, 5-(4-(2-(7-((3-((2,6-dimethylphenyl)amino)-1-methyl-1H-pyrazolo[3,4-d]pyrimidin-6-yl)amino)-3,4-dihydroisoquinolin-2 (1H)-yl)acetyl)piperazin-1-yl)-2-(2,6-dioxopiperidin-3-yl)isoindoline-1,3-dione], the DC50 was 10 to 1000 nM.

Work on `Cc1cccc(C)c1Nc1nn(C)c2nc(Nc3ccc4c(c3)CN(C(=O)Nc3ccc5c(c3)CN(C3CCC(=O)NC3=O)C5=O)CC4)ncc12` (centres unmarked) [Compound 96, 7-((3-((2,6-dimethylphenyl)amino)-1-methyl-1H-pyrazolo[3,4-d]pyrimidin-6-yl)amino)-N-(2-(2,6-dioxopiperidin-3-yl)-1-oxoisoindolin-5-yl)-3,4-dihydroisoquinoline-2 (1H)-carboxamide] yielded a DC50 of 0.1 to 10 nM.

`Cc1cccc(C)c1Nc1nn(C)c2nc(Nc3ccc4c(c3)CN(CC(=O)NC3CCN(c5ccc6c(c5)C(=O)N(C5CCC(=O)NC5=O)C6=O)CC3)CC4)ncc12` (centres unmarked) [Compound 97, 2-(7-((3-((2,6-dimethylphenyl)amino)-1-methyl-1H-pyrazolo[3,4-d]pyrimidin-6-yl)amino)-3,4-dihydroisoquinolin-2 (1H)-yl)-N-(1-(2-(2,6-dioxopiperidin-3-yl)-1,3-dioxoisoindolin-5-yl)piperidin-4-yl)acetamide] showed a DC50 of 0.1 to 10 nM.

In the case of `Cc1cccc(C)c1Nc1nn(C)c2nc(Nc3ccc4c(c3)CN(C(=O)CNCc3ccc5c(c3)CN(C3CCC(=O)NC3=O)C5=O)CC4)ncc12` (centres unmarked) [Compound 98, 3-(5-(((2-(7-((3-((2,6-Dimethylphenyl)amino)-1-methyl-1H-pyrazolo[3,4-d]pyrimidin-6-yl)amino)-3,4-dihydroisoquinolin-2 (1H)-yl)-2-oxoethyl)amino)methyl)-1-oxoisoindolin-2-yl)piperidin-2,6-one], the DC50 is reported as 0.1 to 10 nM.

With `Cc1cccc(C)c1Nc1nn(C)c2nc(Nc3ccc(CCNC(=O)C4CCN(c5ccc6c(c5)C(=O)N(C5CCC(=O)NC5=O)C6=O)CC4)cc3)ncc12` (centres unmarked) [Compound 100, N-(4-((3-((2,6-dimethylphenyl)amino)-1-methyl-1H-pyrazolo[3,4-d]pyrimidin-6-yl)amino)phenethyl)-1-(2-(2,6-dioxopiperidin-3-yl)-1,3-dioxoisoindolin-5-yl)piperidine-4-carboxamide] the DC50 was 0.1 to 10 nM.

`Cc1cccc(C)c1Nc1nn(C)c2nc(Nc3ccc(CCNC(=O)C4CCN(CC(=O)Nc5ccc6c(c5)C(=O)N(C5CCC(=O)NC5=O)C6=O)CC4)cc3)ncc12` (centres unmarked) [Compound 101, N-(4-((3-((2,6-dimethylphenyl)amino)-1-methyl-1H-pyrazolo[3,4-d]pyrimidin-6-yl)amino)phenethyl)-1-(2-((2-(2,6-dioxopiperidin-3-yl)-1,3-dioxoisoindolin-5-yl)amino)-2-oxoethyl)piperidine-4-carboxamide] gave a DC50 of 10 to 1000 nM.

Source: patent publication US12161722B2, “Bifunctional heterocyclic compound having BTK degradation function via ubiquitin proteasome pathway, and use thereof” (KOREA RESEARCH INSTITUTE OF CHEMICAL TECHNOLOGY, priority 2021, dated 2024)
